The source of these data is patent US6992218B2, “Method for obtaining aqueous formulations of oxidation-sensitive active principles” (Pharmatop SCR, priority 2000, dated 2006).

Like-named read-outs stand apart in the source and are kept apart here.

A short description of data set [1]: Example III: stability of paracetamol solution with or without citrate ions. It counts as physicochemical. The following applies: O2 approx. 0.4 ppm, sterilized. How it is done:
Thus a 10 mg/ml paracetamol solution adjusted to pH 5.5 by hydrochloric acid was subjected to bubbling with nitrogen until an oxygen content of approximately 0.4 ppm was obtained. The bottles were sterilized at 121° C. for 15 minutes and kept at ambient temperature. […] After bubbling with nitrogen, the residual oxygen content is of the order of 0.4 ppm. Afterwards the solution is packaged into bottles under vacuum and sterilized at 121° C. for 15 minutes. The bottles are kept for 67 days at ambient temperature.

The procedure of data set [2]: A 10 mg/ml aqueous paracetamol solution adjusted to pH 5.5 by sodium hydroxide and buffered at this value by sodium acetate was made isotonic by a sufficient quantity of sodium chloride, then an antioxidant is added to it, in this case 0.20 mg/ml cysteine chlorhydrate. This solution was subjected to bubbling with nitrogen then placed under vacuum (low pressure approx. 550 mm of Hg) before stoppering the bottles. […] After sterilization, the bottles containing this solution were kept for 24 months at 25° C.

A short description of data set [3]: Paracetamol solution with trisodic citrate kept at 40° C. (general statement). In kind it is physicochemical. How it is done: In particular, in the case of paracetamol, after the addition of trisodic citrate at a concentration of 70 mg/100 ml of solution, the residual cysteine concentration is approximately double than that of preparations without citrate, no coloration appeared, even after 7 weeks at 40° C., and there was no variation in the concentration of paracetamol.

For data set [4] the following is noted: ambient temperature under light, and 70° C. in darkness; nitrogen bubbling, filling under nitrogen, antioxidant added; cited from earlier work.
For data set [5] the following is noted: for coloration: sterilized 121° C. 15 min. How it is done:
A 10 mg/ml aqueous paracetamol solution is prepared. Adjustment to pH 5.5 is carried out by the addition of HCl, and buffering by the addition of sodium hydrogenophosphate.
Deoxygenation is then carried out by bubbling with nitrogen, until a residual oxygen content of approximately 0.2 ppm is obtained. After the bottles are filled with the solution during prolonged bubbling with nitrogen, they are sterilized at 121° C. for 15 minutes.
In another test, the paracetamol solution, after being subjected to bubbling with nitrogen, has been packaged under nitrogen.

Data set [6] is described as follows: Example IX: stability of 1% Dobutamine sulphate solution at 50° C. In kind it is physicochemical. How it is done: A Dobutamine sulphate solution is prepared by dissolving 1 g Dobutamine in 50 ml of water and 19 ml of a 0.10% sodium ascorbate solution is added, with continuous bubbling of nitrogen. Then 25 mg hydrated cysteine chlorhydrate and 70 mg hydrated sodium citrate are added, then 700 mg sodium chloride to ensure isotonicity. The solution is made up to 100 ml by the addition of distilled water for injectable preparations.
It is filled into 100 ml bottles under nitrogen until the residual oxygen content is below 0.8 ppm. The bottles are then stoppered under vacuum (approx. 10,000 Pa) and sterilized at 121° C. for 20 minutes.
After removal from the autoclave, the bottles are kept in darkness in a thermostatic cupboard at 50° C.
An evaluation is made of absorption at 308 nm as an indication of oxidation into secondary products, the residual oxygen content and the residual cysteine content immediately after sterilization, then after being kept for 14 days at 50° C.
Coloration remains slight and reduces as the pH increases.

Data set [7] in a line: Example V: residual cysteine in buffered aqueous cysteine solutions. It counts as physicochemical. To be noted: 0.25 mg/ml cysteine, approx. 7 ppm O2, darkness 25° C. 3 days. How it is done:
A 0.25 mg/ml aqueous cysteine solution was adjusted to pH 5.5, made isotonic by sodium chloride and buffered using as a buffering agent: dehydrated sodium citrate (0.70 mg/ml), sodium acetate, sodium hydrogenophosphate, in quantities equimolar to that of the citrate. […] They were kept in darkness at 25° C. for 3 days.

The nature of data set [8]: Example VI: buffered paracetamol + cysteine solutions without deoxygenation. In kind it is physicochemical. To be noted: 10 mg/ml paracetamol + 0.25 mg/ml cysteine, no inert gas, darkness 25° C. 3 days. How it is done:
A quantity of sodium citrate (in the form of dihydrated disodic citrate) was added to 10 mg/ml aqueous paracetamol solutions, made isotonic by NaCl and stabilized by the addition of cysteine hydrochlorhide (0.25 mg/ml) suitable for adjusting the pH to 5.5. […] Comparative solutions were prepared without sodium citrate or replacing the citrate ions by equimolar quantities to those of the citrate, of either sodium acetate, or sodium hydrogenophosphate; in all cases adjusting the pH to a value of 5.5 by the addition of sodium hydroxide or hydrochloric acid.
The solutions were not subjected to bubbling with inert gas (nitrogen) and were kept in darkness at 25° C. for 3 days.

[9] abbreviates: trisodic citrate 70 mg/100 ml, after 7 weeks at 40° C.
Setting [10] is: pH 5.5, sodium hydrogenophosphate.

As to `CC(=O)Nc1ccc(O)cc1` [paracetamol], the coloration entry in data set [1] (10 mg/ml with citric acid/sodium citrate, under vacuum, 67 days at ambient temperature) is given as “perfectly colourless”; in data set [1] (10 mg/ml, pH 5.5 by HCl, no citrate, 9 days at ambient temperature), “yellow-pink”; in data set [2] (10 mg/ml, pH 5.5, acetate buffer, 0.20 mg/ml cysteine chlorhydrate, vacuum, O2 approx. 1.5 ppm, sterilized, 24 months at 25° C.), “colourless”; in data set [3] (setting [9]), “no coloration”; in data set [5] (10 mg/ml, pH 5.5, no antioxidant, O2 approx. 0.2 ppm, 6 months at 25° C.) it was “colourless”; in data set [5] (packaged under nitrogen, vacuum < 10,000 Pa, O2 0.16 ppm, 8 days at 30° C.), “colourless”. Besides, the paracetamol content in data set [2] (0.20 mg/ml cysteine chlorhydrate, O2 approx. 1.5 ppm, sterilized, 24 months at 25° C.) is reported as 100 % of the original value; in data set [5] (10 mg/ml, pH 5.5, no antioxidant, O2 approx. 0.2 ppm, sterilized, 6 months at 25° C.), “no change”. The “degradation products of the paracetamol measured by HPLC” value in data set [2] (24 months, 10 mg/ml, pH 5.5) is “less than 0.02 % of the paracetamol content”. For the same compound, the “residual cysteine concentration versus preparations without citrate” value in data set [3] (trisodic citrate 70 mg/100 ml of solution) is recorded as “approximately double”. In addition, the “variation in the concentration of paracetamol” value in data set [3] (setting [9]) is given as “no variation”. Moreover, in data set [4], the “time for which aqueous solutions are stable” value is 48 h. For the same compound, the “content of degradation products of paracetamol determined by HPLC” value in data set [5] (6 months, 10 mg/ml, pH 5.5) is recorded as “lower than 0.015 % of the paracetamol”.
As to `CC(CCc1ccc(O)cc1)NCCc1ccc(O)c(O)c1` (stereo not drawn) [Dobutamine], in data set [6] (1% solution with ascorbate, cysteine, citrate, vacuum, sterilized 121° C. 20 min, kept at 50° C.), the “degradation of the Dobutamine in heat” value is reported as “no degradation”. Also, the “secondary peaks by liquid chromatography, absorption at 308 nm” value in data set [6] (degree decreases as the pH increases) was “appearance of secondary peaks”. Moreover, the coloration entry in data set [6] (reduces as the pH increases) is recorded as “slight”.
Regarding `N[C@@H](CS)C(=O)O` [cysteine], the residual cysteine content entry is on record as “lowest” in data set [7] (pH 5.5, citrate 0.70 mg/ml); 15% in data set [7] (pH 5.5, non-buffered); 18% in data set [7] (pH 5.5, sodium acetate); 21% in data set [7] (setting [10]). For the same compound, the residual cysteine in data set [8] (pH 5.5, citrate approx. 0.7 mg/ml) worked out at 22%; in data set [8] (pH 5.5, non-buffered), 42%; in data set [8] (pH 5.5, sodium acetate) it was 17%; in data set [8] (setting [10]), 21%.
